pIC50: −log10 of the molar value. Where two headings read alike, the source gives them in different places.
Columns and labels:
Type in all cases: cell-based
[1] = tested on: T-ALL cells (Jurkat, RPMI-8402); experiment: Three dose response gene expression analysis (qRT-PCR); conditions: 0.1, 1 and 10 µM, 24 h; for HES1 and c-MYC expression: T-ALL cells; for c-MYC expression: T-ALL cell lines
Description: (§1) Total RNA from cell lines was isolated using the RNeasy Mini kit (cat #74104, Qiagen), according to the manufacturer’s instructions. qRT-PCR was performed as described elsewhere[51] with some minor modifications: RNA was reverse transcribed to cDNA using iScript Reverse Transcription Supermix (cat # 1708841, Bio-rad). cDNA was then diluted 1:5 in nuclease free H20. qRT-PCR was performed on a C1000 Touch thermal cycler (Bio-rad) and gene expression was detected with SsoAdvanced Universal SYBR Green Supermix (cat # 1725274, Bio-rad). Gene expression was determined by normalizing to GAPDH mRNA expression levels and fold expression change was calculated using the ΔΔCT method (ΔΔCT = ΔCt sample − Δct control). Primers used in qPCR are shown in Supplemental Table 9.
(§2) Adherent breast cancer cells were seeded in 24-well cell culture plates (ThermoFisher, Nunc, Delta surface, cat #144530) and T-ALL cells growing in suspension (Jurkat, RPMI-8402) were seeded in non-adherent 24-well plates (ThermoFisher, Nunc, cat […]). 60.000 cells were seeded and treated with 0.1, 1 and 10 µM of each compound. […] Cells were harvested 24 h post treatment and RNA isolation and gene expression analysis (qRT-PCR) was performed as described above.

MDA-MB-231 cells = experiment: as above; conditions: 0.1, 1 and 10 µM, 24 h
Description: as §1, §2

[2] = tested on: Notch downstream genes in tumour cell lines; experiment: Three dose response gene expression analysis (qRT-PCR), panel of cell lines; set-up: key to gene expression: + indicates that the compound had an effect; -: − indicates that there was no significant effect in the respective assay; conditions: for gene expression: summary Fig. 8E; for Notch targets: overview in comparison to compound C, Supplemental Fig. 9
Description: as §1, §2

[3] = tested on: T-ALL and breast cancer cell lines; experiment: Growth inhibition in tumour cell lines (panel, cell lines not named singly); set-up: key to tumor cell growth: + indicates that the compound had an effect; -: − indicates that there was no significant effect in the respective assay; conditions: for tumor cell growth: summary Fig. 8E; for viability assay: overview in comparison to compound C, Supplemental Fig. 9; for pIC50: six days, read-out: IC50, metabolic activity
Text: We next investigated whether compounds A-E affected growth and viability of cell lines from T-cell acute lymphoblastic leukaemia (T-ALL) and breast cancer, two tumour types in which elevated Notch signalling has been implicated in tumorigenesis. […] When testing analogues of compounds B and C, five of the seven B analogues and one of the two C analogues produced dose–response curves and IC50s, which however were higher compared to the original hits (Supplemental Fig. 5A; IC50s are presented in Supplemental Table 6).
Compounds were spotted on white 384-well tissue culture plates (Greiner, cat #781080) using an Echo 525 Acoustic liquid handler (Labcyte). Cells were grown to 80% confluence, detached if required, counted and 20 µl containing 2000–4000 cells per well was then seeded in each well and cultivated for three (4,000 cells seeded) and six days (2,000 cells seeded). […] Luciferase activity (reading out metabolic activity) was determined using the CellTiter-Glo 2.0 kit (CTG, Promega, cat #G9242) following the manufacturer’s instructions and luminescence was measured on a SpectraMaxi3 or Varioscan plate reader (Molecular Devices, Thermofisher).

Row | Compound | HES1 and c-MYC expression [1] | HES4 expression (MDA-MB-231 cells) | transcript levels of the Notch ligand Jagged1 (MDA-MB-231 cells) | gene expression [2] | tumor cell growth [3] | viability assay [3] | c-MYC expression (MDA-MB-231 cells) | Notch targets [2] | pIC50 ([3]; Homo sapiens, the other breast cancer cell lines (other than MDA-MB-468)) | c-MYC expression [1] | HES1 expression (MDA-MB-231 cells) | pIC50 ([3]; all cell lines (breast cancer)) | HES1 and HES4 target gene expression ([2]; across the panel of cell lines)
1 | Cc1ccc2[nH]c3c(c2c1)CCOC31CCN(Cc2ccccc2-c2ccccc2)CC1 [compound B] | dose-dependent downregulation | reduced | reduced | + | + |  |  |  |  |  |  |  | 
2 | C[C@H](NC(=O)Cc1cc(F)cc(F)c1)C(=O)N[C@H](C(=O)OC(C)(C)C)c1ccccc1 [DAPT, reference compound] |  |  |  |  |  | context specific |  |  |  |  |  |  | 
3 | COc1cccc(CNc2ccc(N3CCCCC3)cc2)c1OCc1cccs1 [compound C] | dose-dependent downregulation | upregulated |  | + | + | context specific | downregulation | condition dependent | < 5.00 |  |  |  | 
4 | CC(C)(C)c1ccc(Oc2ccc(N)cn2)cc1 [CB-103, reference compound] |  |  |  |  |  | context specific | trend towards upregulation | condition dependent |  | reduced |  |  | 
5 | Cc1nn(-c2nc3ccccc3s2)c(O)c1C1OC(=O)c2ccccc21 (stereo not drawn) [compound E] | dose-dependent downregulation |  | reduced | + | - |  |  |  |  |  | downregulated | < 5.00 | 
6 | CCc1c(C(=O)N(C)Cc2cnn(C(C)C)c2)[nH]c2ccccc12 [compound A] |  | reduced | reduced | - | - |  |  |  |  |  | downregulated | < 5.00 | 
7 | NC(=O)c1c(NC(=O)NCc2cccnc2)sc2c1CCC2 [compound D] | dose-dependent downregulation | reduced | reduced | + | - |  |  |  |  |  | downregulated | < 5.00 | 
8 | CC(C)(C(=O)NCC(F)(F)C(F)(F)F)C(=O)N[C@@H]1C(=O)Nc2ccccc2-c2ccccc21 [RO4929097, reference compound] |  |  |  |  |  | context specific | did not reduce | condition dependent |  | consistently reduced |  |  | consistently reduced
